Laboratory results from patent US11339171B2, “MDM2 inhibitors” (Gan & Lee Pharmaceuticals, priority 2017, dated 2022).
Values joined by “and” are separate entries in the source; they are usually repeats but may differ in a detail not shown here. Identical values can stand only once. Like-named read-outs stand apart in the source and are kept apart here.

Tests used:
[1] = Pharmacokinetics in ICR mice after intravenous and intragastric administration; assay type: in vivo; details: for F*: PO 5 mg/kg vs IV 2 mg/kg; for MRT last: read-out: MRT(0-t); for MRT inf: read-out: MRT(0-∞); for Vd: read-out: Vz
How it was run: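 Single-dose mouse PK study: i.v. 2 mg/kg and intragastric 5 mg/kg to fasted male ICR mice, three animals per arm. Exposure and disposition parameters (Cmax, Tmax, AUC, t1/2, F, CL, Vz) came from LC-MS/MS plasma levels.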

[2] = system: human osteosarcoma cell line SJSA-1; assay: Inhibition of proliferation of human osteosarcoma cell line SJSA-1 (DAPI staining, In Cell Analyzer); details: Homo sapiens, SJSA-1, 72 h, read-out: IC50 (nM), inhibitory activity on proliferation of human osteosarcoma cell line SJSA-1, SJSA-1, incubated 72 h
MDM2 = biological target: T1, MDM2 (Homo sapiens, UniProt Q00987); assay: Inhibition test of MDM2-P53 (GST-MDM2, Biotin-P53, Anti-GST-Tb, SA-XL665); assay type: binding
T1 construct: made in house
T1 sequence (Q00987 whole entry): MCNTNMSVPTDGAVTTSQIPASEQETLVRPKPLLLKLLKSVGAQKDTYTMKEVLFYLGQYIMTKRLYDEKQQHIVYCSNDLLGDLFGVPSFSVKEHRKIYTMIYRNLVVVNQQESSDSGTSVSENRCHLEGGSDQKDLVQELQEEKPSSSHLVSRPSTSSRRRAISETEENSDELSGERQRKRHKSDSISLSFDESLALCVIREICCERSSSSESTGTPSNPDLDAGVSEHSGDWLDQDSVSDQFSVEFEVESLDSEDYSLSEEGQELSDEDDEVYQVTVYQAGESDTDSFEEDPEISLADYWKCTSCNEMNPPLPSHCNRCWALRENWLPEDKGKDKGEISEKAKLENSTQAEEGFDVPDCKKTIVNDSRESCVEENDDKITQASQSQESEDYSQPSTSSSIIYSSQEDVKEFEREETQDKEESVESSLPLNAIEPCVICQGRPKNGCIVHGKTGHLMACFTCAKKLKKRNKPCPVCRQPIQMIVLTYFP
How it was run: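 HTRF-type assay using 4 nM GST-MDM2 (final), Biotin-P53, SA-XL665 and anti-GST-Tb in PBS with 0.1% BSA, 5 mM DTT and 1 mM AEBSF. Compounds in 5-fold serial dilutions over twelve points; incubation 90 min at 25° C with shaking before plate-reader read-out.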

[3] = IV 2 mg/kg, ICR mice, individual animal, 2 mg/kg
[4] = PO 5 mg/kg, ICR mice, individual animal, 5 mg/kg
[5] = male, ICR, mouse, plasma, iv, 2 mg/kg, IV 2 mg/kg, ICR mice, Mean
[6] = male, ICR, mouse, plasma, iv, 2 mg/kg, IV 2 mg/kg, ICR mice, Mean, read-out: AUC(0-t)
[7] = male, ICR, mouse, plasma, iv, 2 mg/kg, IV 2 mg/kg, ICR mice, Mean, read-out: Cmax
[8] = male, ICR, mouse, plasma, iv, 2 mg/kg, IV 2 mg/kg, ICR mice, Mean, read-out: Tmax
[9] = male, ICR, mouse, plasma, iv, 2 mg/kg, IV 2 mg/kg, ICR mice, Mean, read-out: t1/2 (converted)
[10] = male, ICR, mouse, plasma, iv, 2 mg/kg, IV 2 mg/kg, ICR mice, individual animal
[11] = male, ICR, mouse, plasma, iv, 2 mg/kg, IV 2 mg/kg, ICR mice, individual animal, read-out: AUC(0-t)
[12] = male, ICR, mouse, plasma, iv, 2 mg/kg, IV 2 mg/kg, ICR mice, individual animal, read-out: Cmax
[13] = male, ICR, mouse, plasma, iv, 2 mg/kg, IV 2 mg/kg, ICR mice, individual animal, read-out: t1/2 (converted)
[14] = male, ICR, mouse, plasma, po, 5 mg/kg, PO 5 mg/kg, ICR mice, Mean
[15] = male, ICR, mouse, plasma, po, 5 mg/kg, PO 5 mg/kg, ICR mice, Mean, read-out: AUC(0-t)
[16] = male, ICR, mouse, plasma, po, 5 mg/kg, PO 5 mg/kg, ICR mice, Mean, read-out: Cmax
[17] = male, ICR, mouse, plasma, po, 5 mg/kg, PO 5 mg/kg, ICR mice, Mean, read-out: Tmax
[18] = male, ICR, mouse, plasma, po, 5 mg/kg, PO 5 mg/kg, ICR mice, Mean, read-out: t1/2 (converted)
[19] = male, ICR, mouse, plasma, po, 5 mg/kg, PO 5 mg/kg, ICR mice, individual animal
[20] = male, ICR, mouse, plasma, po, 5 mg/kg, PO 5 mg/kg, ICR mice, individual animal, read-out: Tmax
[21] = male, ICR, mouse, plasma, po, 5 mg/kg, PO 5 mg/kg, ICR mice, individual animal, read-out: t1/2 (converted)
[22] = male, ICR, mouse, plasma, po, 5 mg/kg, oral intragastric administration 5 mg/kg, read-out: AUC0-t
[23] = male, ICR, mouse, plasma, po, 5 mg/kg, oral intragastric administration 5 mg/kg, read-out: half-life (converted)

COc1ncc(-c2nc3c(n2C(C)C)[C@@]2(C(=O)Nc4cc(Cl)ccc42)N(c2cc(Cl)ccc2C)C3=O)c(OC)n1 [Example S-2, (S)-6-chloro-5′-(5-chloro-2-methylphenyl)-2′-(2,4-dimethoxypyrimidin-5-yl)-3′-isopropyl-3′H-spiro[dihydroindole-3,4′-pyrrolo[3,4-d]imidazole]-2,6′(5′H)-dione]
AUC(0-t) [1, 3]: 1477.86 ng·h/mL and 1362.57 ng·h/mL | AUC(0-∞) [1, 3]: 1494.93 ng·h/mL and 1392.31 ng·h/mL | CL [1, 3]: 1337.86 mL/h/kg and 1436.46 mL/h/kg | Cmax [1, 3]: 456.11 ng/mL and 492.38 ng/mL | MRT(0-t) [1, 3]: 1.51 h | MRT(0-∞) [1, 3]: 1.54 h and 1.64 h | Tmax [1, 3]: 0.50 h and 1.00 h and 0.08 h | Vz [1, 3]: 1804.36 mL/kg and 2291.83 mL/kg | t1/2 [1, 3]: 0.93 h and 1.11 h | F* ([1]; ICR mice): 101.81% | AUC(0-t) [1, 4]: 3883.23 ng·h/mL and 4136.52 ng·h/mL | AUC(0-∞) [1, 4]: 4100.77 ng·h/mL and 4259.08 ng·h/mL | Cmax [1, 4]: 729.77 ng/mL and 804.59 ng/mL | MRT(0-t) [1, 4]: 2.87 h and 2.76 h | MRT(0-∞) [1, 4]: 3.28 h and 2.97 h | Tmax [1, 4]: 1.00 h | t1/2 [1, 4]: 1.83 h and 1.50 h | AUC(0-inf) [1, 5]: 1480 ng·h/mL | clearance [1, 5]: 22.5 mL/min/kg | AUC(0-t) [1, 6]: 1460 ng·h/mL | Cmax [1, 7]: 475 ng/mL | MRT last [1, 5]: 1.48 h | MRT inf [1, 5]: 1.56 h | Tmax [1, 8]: 0.528 h | Vd [1, 5]: 1.88 L/kg | half-life [1, 9]: 57.6 min | AUC(0-inf) [1, 10]: 1560 ng·h/mL | clearance [1, 10]: 21.3 mL/min/kg | AUC(0-t) [1, 11]: 1550 ng·h/mL | Cmax [1, 12]: 477 ng/mL | MRT last [1, 10]: 1.47 h | MRT inf [1, 10]: 1.51 h | Vd [1, 10]: 1.55 L/kg | half-life [1, 13]: 50.4 min | AUC(0-inf) [1, 14]: 3870 ng·h/mL | AUC(0-t) [1, 15]: 3730 ng·h/mL | Cmax [1, 16]: 730 ng/mL | MRT last [1, 14]: 2.84 h | MRT inf [1, 14]: 3.12 h | Tmax [1, 17]: 1.67 h | half-life [1, 18]: 95.4 min | AUC(0-inf) [1, 19]: 3250 ng·h/mL | AUC(0-t) ([1]; male, ICR, mouse, plasma, po, 5 mg/kg, PO 5 mg/kg, ICR mice, individual animal, read-out: AUC(0-t)): 3170 ng·h/mL | Cmax ([1]; male, ICR, mouse, plasma, po, 5 mg/kg, PO 5 mg/kg, ICR mice, individual animal, read-out: Cmax): 656 ng/mL | MRT last [1, 19]: 2.89 h | MRT inf [1, 19]: 3.09 h | Tmax [1, 20]: 2 h | half-life [1, 21]: 87 min | AUC(0-t) [1, 22]: 3730 ng·h/mL | half-life [1, 23]: 95.4 min | bioavailability ([1]; male, ICR, mouse, plasma, oral intragastric administration 5 mg/kg, read-out: bioavailability): 102% | IC50 [2]: 7.4 nM | IC50 (MDM2): 1.13 nM

COc1ncc(-c2nc3c(n2C(C)C)[C@@]2(C(=O)Nc4cc(Cl)ccc42)N(c2cccc(Cl)c2)C3=O)c(OC)n1 [Example S-1, (S)-6-chloro-5′-(3-chlorophenyl)-2′-(2,4-dimethoxypyrimidin-5-yl)-3′-isopropyl-3′H-spiro[dihydroindole-3,4′-pyrrolo[3,4-d]imidazole]-2,6′(5′H)-dione]
AUC(0-t) [1, 3]: 843.53 ng·h/mL and 532.69 ng·h/mL | AUC(0-∞) [1, 3]: 855.63 ng·h/mL and 548.82 ng·h/mL | CL [1, 3]: 2337.47 mL/h/kg and 3644.18 mL/h/kg | Cmax [1, 3]: 336.17 ng/mL and 307.80 ng/mL | MRT(0-t) [1, 3]: 1.34 h | MRT(0-∞) [1, 3]: 1.43 h and 1.52 h | Vz [1, 3]: 3308.82 mL/kg and 6380.69 mL/kg | t1/2 [1, 3]: 0.98 h and 1.21 h | F* ([1]; ICR mice): 76.30% | AUC(0-t) [1, 4]: 1822.90 ng·h/mL and 1944.41 ng·h/mL and 241.17 ng·h/mL | AUC(0-∞) [1, 4]: 1834.25 ng·h/mL and 2088.41 ng·h/mL and 330.15 ng·h/mL | Cmax [1, 4]: 629.23 ng/mL and 471.21 ng/mL and 92.81 ng/mL | MRT(0-t) [1, 4]: 2.60 h and 1.79 h | MRT(0-∞) [1, 4]: 3.17 h and 3.13 h | t1/2 [1, 4]: 1.98 h and 1.92 h | AUC(0-inf) [1, 5]: 714 ng·h/mL | clearance [1, 5]: 48.3 mL/min/kg | AUC(0-t) [1, 6]: 700 ng·h/mL | Cmax [1, 7]: 325 ng/mL | MRT last [1, 5]: 1.33 h | MRT inf [1, 5]: 1.45 h | Tmax [1, 8]: 0.083 h | Vd [1, 5]: 4.54 L/kg | half-life [1, 9]: 64.2 min | AUC(0-inf) [1, 10]: 737 ng·h/mL | clearance [1, 10]: 45.2 mL/min/kg | AUC(0-t) [1, 11]: 725 ng·h/mL | Cmax [1, 12]: 330 ng/mL | MRT last [1, 10]: 1.31 h | MRT inf [1, 10]: 1.41 h | Tmax ([1]; male, ICR, mouse, plasma, iv, 2 mg/kg, IV 2 mg/kg, ICR mice, individual animal, read-out: Tmax): 0.08 h | Vd [1, 10]: 3.92 L/kg | half-life [1, 13]: 60 min | AUC(0-inf) [1, 14]: 1420 ng·h/mL | AUC(0-t) [1, 15]: 1340 ng·h/mL | Cmax [1, 16]: 398 ng/mL | MRT last [1, 14]: 2.11 h | MRT inf [1, 14]: 2.76 h | Tmax [1, 17]: 1 h | half-life [1, 18]: 98.4 min | MRT last [1, 19]: 1.94 h | MRT inf [1, 19]: 1.99 h | Tmax [1, 20]: 1 h | half-life [1, 21]: 61.8 min | AUC(0-t) [1, 22]: 1340 ng·h/mL | half-life [1, 23]: 98.4 min | IC50 [2]: 39.6 nM | IC50 (MDM2): 2.21 nM
